We go through 1 substance from US20210401931A1, “METHODS AND MATERIALS FOR TREATING CANCER” (Mayo Foundation for Medical Education and Research, priority 2018, published 2021).

The test system of test [1] is NF-κB site of the PD-L1 promoter. Put plainly: EMSA with biotin-labeled PD-L1-prom oligonucleotide and PC-3 nuclear extracts. Type of test: cell-based, human. The conditions noted are these: PC-3 cells expressing peptide. The source says: FIGS. 11A-H. (A) Heatmap showing differentially expressed genes (FDR<0.01) between palbociclib treatment versus DMSO and knockdown RB1 versus control. Gene expression values (FPKM) were Z-score normalized. FPKM, Fragments Per Kilobase of transcript per Million mapped reads. (B) UCSC Genome Browser screenshots of meta-analysis of published RB ChIP high throughput sequencing (ChIP-seq) data showing RB binding to CD274 (PD-L1) gene locus in K562 cells. PD-L1-prom oligonucleotide DNA containing NF-κB binding sequence was shown in the RB binding peak in the PD-L1 gene, the corresponding mutant PD-L1-prom oligonucleotide DNA was shown below. FIG. 11B discloses SEQ ID NOS 279-280, respectively, in order of appearance. (C) ChIP-qPCR analysis of RB binds at the PD-L1 promotor in PC-3 cells. All data were shown as mean values±SD (n=3). *** P<0.001. (D) ChIP-reChIP analysis examining the co-localization of p65 and RB in the PD-L1 promoters. All data were shown as mean values±SD (n=3). ** P<0.01. […]
FIGS. 21A-N. Effect of RB depletion, cell cycle, and RB-N S249/T252 phospho-mimicking peptide on PD-L1 expression in cell lines of various cancer types. […] 48 hours after infection, PD-L1 expression was determined by western blotting (A), RT-qPCR (B), and FACS (C). […] (D) Pd-l1 protein and mRNA levels were determined by western blotting in primary SKO and DKO mouse prostate tumor cell lines. […]
On the technique in general: A gel shift assay detects complexes by their altered migration in electrophoresis.

Test [2] relates to PTEN-CaP8 cells. The experiment in a line: Pd-l1 and NFκB target gene expression in PTEN-CaP8 cells expressing RL peptide. It is filed as cell-based, mouse. The method, then:
FIGS. 13A-F. (A, B) PC-3 cells were treated with or without gamma irradiation (IR) (12 Gy). 24 hours post treatment, cells were treated with or without Helenalin (2 μM). 24 hours after treatment, cells were harvested for western blotting analysis (A) and RT-qPCR analysis (B). All data were shown as mean values±SD (n=3). “ns”=not significant, *** P<0.001. (C) PTEN-CaP8 cells were infected with lentivirus expression Tsin control or Tsin-RL S249D/T252D peptide. 72 hours post infection, cell were harvested for western blotting analysis. (D, E) PTEN-CaP8 cells were infected with lentivirus expression Tsin control or Tsin-RL S249D/T252D peptide. 72 hours post infection, cells were treated with or without gamma irradiation (12 Gy) for 48 hours. Cells were harvested for MTS assay (D) and RT-qPCR (E). All data were shown as mean values±SD (n=3). “ns”=not significant, ** P<0.01; *** P<0.001. (F) Schematic diagram depicting the treatment plan for mice bearing subcutaneous PTEN-CaP8 tumors.
Total RNA was isolated using TRIzol reagent (Thermo Fisher Scientific). The NanoDrop 2000 spectrophotometer (Thermo Fisher Scientific) was used to assess RNA yield and quality. […] Quantitative real-time PCR was performed by mixing cDNA, gene-specific primers, and IQ SYRB Green Supermix and detected by iCycler QTX detection system (Bio-Rad). The 2-ΔCt method was used to quantitate fold changes by normalizing to GAPDH. […]

Ends that are not written are not given here.

Take “RL-S249D/T252D: S249/T252 phospho-mimicking R-Linker (RL) peptide: fragment of RB-N containing 21 amino acids surrounding S249/T252, expressed SFB-tagged or by lentivirus (NGDPRDPRRGQNRSARIAKQL; also: expressed SFB-tagged (tag left off))”: the “p65 binding to the cognate DNA in the PD-L1 promoter” value in test [1] is recorded as “inhibition”. Further, in test [2] (PTEN-CaP8 cells, lentiviral peptide expression), the “expression of anti-apoptotic / pro-survival NFκB target genes” value is recorded as “blocked”. Besides, the “Pd-l1 expression in PTEN-CaP8 cells” value in test [2] (lentiviral Tsin-RL S249D/T252D, 72 hours) is on record as “completely blocked”.
